Assay results from publication PMC10041525, “New Dual Inhibitors of Bacterial Topoisomerases with Broad-Spectrum Antibacterial Activity and In Vivo Efficacy against Vancomycin-Intermediate Staphylococcus aureus” (Journal of Medicinal Chemistry, 2023).
Like-named read-outs stand apart in the source and are kept apart here.

Key:
[1] = test system: 100 A. baumannii strains (50 MDR, 50 non-MDR); assay: MIC broth microdilution at IHMA Europe, panel of 100 strains; type: cell-based; details: for MIC / MIC50 / MIC90: Acinetobacter baumannii; for MIC50: read-out: MIC 50; for MIC90: read-out: MIC 90
P. aeruginosa ATCC 27853 = assay: IHMA QC MIC; type: cell-based; details: for MIC: Pseudomonas aeruginosa
E. faecalis ATCC 29212 = test system: E. faecalis ATCC 29212; design: method as in earlier work; details: QC range for E. faecalis ATCC 29212, ref CLSI; cited from earlier work

C[C@@H](O)[C@H]1C(=O)N2C(C(=O)O)=C(SCCNC=N)C[C@H]12 [Imipenem, imipenem]
1 µg/mL: MIC (QC, repeated tests) (P. aeruginosa ATCC 27853)
16 µg/mL: MIC ([1]; A. baumannii IHMA 2180142, Malaysia 2020, MDR, read-out: MIC) | MIC ([1]; A. baumannii IHMA 2183729, Argentina 2020, MDR, read-out: MIC) | MIC ([1]; MDR n = 50, read-out: MIN (minimum MIC))
0%: Percentage I ([1]; MDR n = 50) | Percentage S ([1]; MDR n = 50) | Percentage I ([1]; all n = 100, CLSI breakpoints) | Percentage I ([1]; non-MDR n = 50) | Percentage R ([1]; non-MDR n = 50)
100%: Percentage R ([1]; MDR n = 50) | Percentage S ([1]; non-MDR n = 50)
> 16 µg/mL: MIC ([1]; A. baumannii IHMA 2156634, Turkey 2020, MDR, read-out: MIC) | MIC ([1]; A. baumannii IHMA 2156709, Turkey 2020, MDR, read-out: MIC) | MIC ([1]; A. baumannii IHMA 2177232, Lithuania 2020, MDR, read-out: MIC) | MIC ([1]; A. baumannii IHMA 2177489, Lithuania 2020, MDR, read-out: MIC) | MIC ([1]; A. baumannii IHMA 2181370, Morocco 2020, MDR, read-out: MIC) | MIC ([1]; A. baumannii IHMA 2193375, Venezuela 2020, MDR, read-out: MIC) | MIC ([1]; A. baumannii IHMA 2193607, Venezuela 2020, MDR, read-out: MIC) | MIC ([1]; A. baumannii IHMA 2195460, Italy 2020, MDR, read-out: MIC) | MIC ([1]; A. baumannii IHMA 2196914, South Africa 2020, MDR, read-out: MIC) | MIC ([1]; A. baumannii IHMA 2196959, South Africa 2020, MDR, read-out: MIC) | MIC ([1]; A. baumannii IHMA 2203763, Spain 2020, MDR, read-out: MIC) | MIC ([1]; A. baumannii IHMA 2205144, Korea, South 2020, MDR, read-out: MIC) | MIC ([1]; A. baumannii IHMA 2206459, Taiwan 2020, MDR, read-out: MIC) | MIC ([1]; A. baumannii IHMA 2216586, Taiwan 2020, MDR, read-out: MIC) | MIC ([1]; A. baumannii IHMA 2224017, Panama 2020, MDR, read-out: MIC) | MIC ([1]; A. baumannii IHMA 2231797, Greece 2020, MDR, read-out: MIC) | MIC ([1]; A. baumannii IHMA 2233099, Guatemala 2020, MDR, read-out: MIC) | MIC ([1]; A. baumannii IHMA 2233430, Kazakhstan 2020, MDR, read-out: MIC) | MIC ([1]; A. baumannii IHMA 2238964, Thailand 2020, MDR, read-out: MIC) | MIC ([1]; A. baumannii IHMA 2261047, Belgium 2020, MDR, read-out: MIC) | MIC ([1]; A. baumannii IHMA 2274234, South Africa 2020, MDR, read-out: MIC) | MIC ([1]; A. baumannii IHMA 2274364, South Africa 2020, MDR, read-out: MIC) | MIC ([1]; A. baumannii IHMA 2275751, Jordan 2020, MDR, read-out: MIC) | MIC ([1]; A. baumannii IHMA 2316205, United States 2020, MDR, read-out: MIC) | MIC ([1]; MDR n = 50, read-out: MAX (maximum MIC; all strains inhibited)) | MIC50 ([1]; MDR n = 50) | MIC90 ([1]; MDR n = 50) | MIC ([1]; all isolates n = 100, read-out: MAX (maximum MIC; all strains inhibited)) | MIC90 ([1]; all isolates n = 100)
50%: Percentage R ([1]; all n = 100, CLSI breakpoints) | Percentage S ([1]; all n = 100, CLSI breakpoints)
0.5 µg/mL: MIC50 ([1]; all isolates n = 100) | MIC ([1]; non-MDR n = 50, read-out: MAX (maximum MIC))
≤ 0.25 µg/mL: MIC ([1]; A. baumannii IHMA 2157614, Australia 2020, Non-MDR, read-out: MIC) | MIC ([1]; A. baumannii IHMA 2178574, Ukraine 2020, Non-MDR, read-out: MIC) | MIC ([1]; A. baumannii IHMA 2180134, Malaysia 2020, Non-MDR, read-out: MIC) | MIC ([1]; A. baumannii IHMA 2183849, Argentina 2020, Non-MDR, read-out: MIC) | MIC ([1]; A. baumannii IHMA 2184382, Japan 2020, Non-MDR, read-out: MIC) | MIC ([1]; A. baumannii IHMA 2193485, Venezuela 2020, Non-MDR, read-out: MIC) | MIC ([1]; A. baumannii IHMA 2206507, Taiwan 2020, Non-MDR, read-out: MIC) | MIC ([1]; A. baumannii IHMA 2212575, Hungary 2020, Non-MDR, read-out: MIC) | MIC ([1]; A. baumannii IHMA 2215307, Hong Kong 2020, Non-MDR, read-out: MIC) | MIC ([1]; A. baumannii IHMA 2223200, Colombia 2020, Non-MDR, read-out: MIC) | MIC ([1]; A. baumannii IHMA 2224303, Panama 2020, Non-MDR, read-out: MIC) | MIC ([1]; A. baumannii IHMA 2233548, Kazakhstan 2020, Non-MDR, read-out: MIC) | MIC ([1]; A. baumannii IHMA 2239052, Thailand 2020, Non-MDR, read-out: MIC) | MIC ([1]; A. baumannii IHMA 2261633, Canada 2020, Non-MDR, read-out: MIC) | MIC ([1]; A. baumannii IHMA 2275237, Chile 2020, Non-MDR, read-out: MIC) | MIC ([1]; all isolates n = 100, read-out: MIN (minimum MIC)) | MIC50 ([1]; non-MDR n = 50) | MIC90 ([1]; non-MDR n = 50) | MIC ([1]; non-MDR n = 50, read-out: MIN (minimum MIC))
0,5 - 2 µg/mL: MIC, CLSI Range (E. faecalis ATCC 29212)
2 µg/mL: MIC (P. aeruginosa ATCC 27853; ATCC27853, QC strain P. aeruginosa ATCC 27853, test date 2021-11-11, read-out: MIC) | MIC (P. aeruginosa ATCC 27853; ATCC27853, QC strain P. aeruginosa ATCC 27853, test date 2021-11-26, read-out: MIC) | MIC (P. aeruginosa ATCC 27853; ATCC27853, read-out: MIC (QC, repeated tests))
